Laboratory results as given in PMC5416783, “Inhibition of homologous phosphorolytic ribonucleases by citrate may represent an evolutionarily conserved communicative link between RNA degradation and central metabolism” (Nucleic Acids Research, 2017).

Key:
Test in all cases: end-point exoribonuclease gel assay, […]'-FAM-A20 RNA
Format in all cases: biochemical
[1] = biological target: T1, H. sapiens PNPase (hPNPase) (Homo sapiens, UniProt Q8TCS8); conditions: inhibition; 700 nM FAM-A20 RNA, 240 nM enzyme, 3.75 mM MgCl2, phosphate, pH 8, 37 °C, 60 min; control without citrate 8.4 ± 2.8 %
T1 construct: gene PNPT1; N-terminal hexahistidine tag (pET-28b), codon-optimised, expressed in E. coli BL21(DE3)pLysS; homotrimer
T1 sequence (Q8TCS8 46-783): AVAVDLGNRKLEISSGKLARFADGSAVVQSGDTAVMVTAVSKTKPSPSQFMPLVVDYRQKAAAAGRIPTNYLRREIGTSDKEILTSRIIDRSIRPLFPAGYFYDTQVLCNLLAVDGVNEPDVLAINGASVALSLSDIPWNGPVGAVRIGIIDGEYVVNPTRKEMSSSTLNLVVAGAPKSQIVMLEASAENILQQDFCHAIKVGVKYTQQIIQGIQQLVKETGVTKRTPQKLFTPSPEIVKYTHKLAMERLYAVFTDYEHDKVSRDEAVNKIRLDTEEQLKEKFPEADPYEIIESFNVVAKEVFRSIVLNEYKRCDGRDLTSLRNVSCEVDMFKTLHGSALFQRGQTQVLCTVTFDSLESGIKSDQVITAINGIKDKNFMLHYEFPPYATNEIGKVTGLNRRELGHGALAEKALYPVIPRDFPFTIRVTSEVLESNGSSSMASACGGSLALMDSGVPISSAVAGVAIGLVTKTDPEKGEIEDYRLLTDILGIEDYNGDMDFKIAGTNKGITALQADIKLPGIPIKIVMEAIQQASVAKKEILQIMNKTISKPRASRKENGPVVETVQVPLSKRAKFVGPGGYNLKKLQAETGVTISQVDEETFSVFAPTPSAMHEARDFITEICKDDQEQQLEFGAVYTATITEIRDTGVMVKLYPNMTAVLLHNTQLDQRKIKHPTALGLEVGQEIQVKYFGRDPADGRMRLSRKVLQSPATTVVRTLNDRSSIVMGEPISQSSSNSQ

[2] = biological target: T2, Synechocystis sp. PNPase (SspPNPase) (Synechocystis sp. PCC 6803, UniProt P72659); conditions: inhibition; 700 nM FAM-A20 RNA, 240 nM enzyme, 3.75 mM MgCl2, phosphate, pH 8, 37 °C, 30 min; control without citrate 2.2 ± 0.2 %
T2 construct: gene pnp; recombinant, commercial (Sigma)
T2 sequence (P72659 1-718): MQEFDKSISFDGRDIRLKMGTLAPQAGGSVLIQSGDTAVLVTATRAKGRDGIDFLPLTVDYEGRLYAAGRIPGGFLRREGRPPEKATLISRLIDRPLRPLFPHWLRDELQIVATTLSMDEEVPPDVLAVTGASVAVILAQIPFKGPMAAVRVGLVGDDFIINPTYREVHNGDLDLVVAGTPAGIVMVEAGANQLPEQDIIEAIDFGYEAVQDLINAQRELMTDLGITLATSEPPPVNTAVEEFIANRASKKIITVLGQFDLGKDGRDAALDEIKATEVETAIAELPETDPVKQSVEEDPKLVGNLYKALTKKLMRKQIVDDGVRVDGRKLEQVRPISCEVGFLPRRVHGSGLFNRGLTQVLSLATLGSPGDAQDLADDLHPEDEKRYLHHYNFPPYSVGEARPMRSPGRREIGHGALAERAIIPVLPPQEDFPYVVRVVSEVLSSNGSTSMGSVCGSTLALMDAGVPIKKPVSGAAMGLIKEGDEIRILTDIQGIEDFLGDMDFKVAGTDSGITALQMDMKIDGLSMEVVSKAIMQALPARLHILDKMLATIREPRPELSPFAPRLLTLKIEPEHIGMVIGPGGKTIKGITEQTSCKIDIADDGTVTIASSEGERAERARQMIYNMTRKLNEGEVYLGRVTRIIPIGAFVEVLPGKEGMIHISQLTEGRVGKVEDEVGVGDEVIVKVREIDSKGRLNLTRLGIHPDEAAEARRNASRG

[3] = biological target: T3, S. solfataricus Exosome (SsoExosome) (Saccharolobus solfataricus, UniProt Q9UXC0+Q9UXC2); conditions: inhibition; 700 nM FAM-A20 RNA, 240 nM enzyme, 3.75 mM MgCl2, phosphate, pH 8, 37 °C, 10 min; control without citrate 4.0 ± 0.5 %
T3 construct: gene rrp41; N-terminal hexahistidine Rrp4 co-expressed with untagged Rrp41 and Rrp42 in E. coli BL21(DE3)pLysS; codon-optimised; trimer of Rrp41/Rrp42 dimers with Rrp4 cap; with Exosome complex component Rrp4
T3 sequence (Q9UXC2 1-248): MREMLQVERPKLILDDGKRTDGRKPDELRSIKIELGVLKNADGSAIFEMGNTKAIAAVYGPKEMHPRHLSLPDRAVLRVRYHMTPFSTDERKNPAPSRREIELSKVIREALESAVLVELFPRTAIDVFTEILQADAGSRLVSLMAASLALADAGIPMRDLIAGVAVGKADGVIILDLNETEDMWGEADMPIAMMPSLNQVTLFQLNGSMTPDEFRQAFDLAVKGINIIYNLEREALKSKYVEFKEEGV
T3 sequence (Q9UXC0 1-275): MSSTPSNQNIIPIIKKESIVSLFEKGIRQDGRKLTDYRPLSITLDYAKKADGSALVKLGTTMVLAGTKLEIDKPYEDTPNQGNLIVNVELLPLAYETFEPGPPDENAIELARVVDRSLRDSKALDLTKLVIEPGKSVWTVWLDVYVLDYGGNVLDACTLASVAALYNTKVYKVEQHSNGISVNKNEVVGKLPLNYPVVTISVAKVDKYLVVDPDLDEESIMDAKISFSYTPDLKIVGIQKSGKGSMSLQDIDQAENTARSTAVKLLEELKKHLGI
T3 sequence (Q9UXC4 1-249 partner): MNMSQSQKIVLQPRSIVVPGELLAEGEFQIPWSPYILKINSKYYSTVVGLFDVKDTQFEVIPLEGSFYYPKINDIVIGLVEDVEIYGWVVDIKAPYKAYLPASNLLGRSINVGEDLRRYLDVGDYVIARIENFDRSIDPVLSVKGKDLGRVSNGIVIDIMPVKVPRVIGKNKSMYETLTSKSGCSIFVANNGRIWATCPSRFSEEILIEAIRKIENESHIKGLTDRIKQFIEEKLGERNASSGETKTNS

[4] = biological target: T4, E. coli PNPase (EcPNPase) (Escherichia coli, UniProt P05055); conditions: inhibition; 700 nM FAM-A20 RNA, 240 nM enzyme, 3.75 mM MgCl2, phosphate, pH 8, 37 °C, 10 min; control without citrate 2.2 ± 0.4 %
T4 construct: gene pnp; pET-Duet1_EcPNPase expressed in E. coli BL21(DE3)pLysS; homotrimer
T4 sequence (P05055 1-711): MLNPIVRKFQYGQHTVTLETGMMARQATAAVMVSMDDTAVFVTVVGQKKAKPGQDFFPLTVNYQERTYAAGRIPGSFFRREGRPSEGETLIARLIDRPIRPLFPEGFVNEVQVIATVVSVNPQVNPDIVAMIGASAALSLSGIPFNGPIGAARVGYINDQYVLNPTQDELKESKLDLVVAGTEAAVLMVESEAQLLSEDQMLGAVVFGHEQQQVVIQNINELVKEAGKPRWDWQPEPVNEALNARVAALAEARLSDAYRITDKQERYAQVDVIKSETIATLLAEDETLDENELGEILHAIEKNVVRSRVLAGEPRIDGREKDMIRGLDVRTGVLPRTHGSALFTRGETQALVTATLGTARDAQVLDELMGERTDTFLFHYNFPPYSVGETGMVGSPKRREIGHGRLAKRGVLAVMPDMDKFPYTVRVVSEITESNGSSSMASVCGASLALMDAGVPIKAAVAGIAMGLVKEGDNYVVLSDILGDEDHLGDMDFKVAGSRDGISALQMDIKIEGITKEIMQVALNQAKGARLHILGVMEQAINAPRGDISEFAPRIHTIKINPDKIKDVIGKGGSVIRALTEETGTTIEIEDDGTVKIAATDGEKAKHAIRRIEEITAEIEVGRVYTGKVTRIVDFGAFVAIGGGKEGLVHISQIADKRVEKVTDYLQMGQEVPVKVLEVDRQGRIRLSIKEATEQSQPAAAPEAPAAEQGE

## O=C(O)CC(O)(CC(=O)O)C(=O)O [citrate]
[1]
  Percentage substrate remaining at assay end-point / + citrate: 22.8 ± 4.8%
[2]
  Percentage substrate remaining at assay end-point / + citrate: 6.9 ± 2.2%
[3]
  Percentage substrate remaining at assay end-point / + citrate: 13.6 ± 0.5%
[4]
  Percentage substrate remaining at assay end-point / + citrate: 5.6 ± 1.5%
